Data on 13 compounds can be found in ChEMBL document CHEMBL5291721, “A preclinical secondary pharmacology resource illuminates target-adverse drug reaction associations of marketed drugs” (Nat Commun, 2023).

A value given as a limit tells only on which side of the number the result lay.

In assay [1] the target is T1, Alpha-2A adrenergic receptor (Homo sapiens, UniProt P08913).
T1 sequence (P08913 whole entry): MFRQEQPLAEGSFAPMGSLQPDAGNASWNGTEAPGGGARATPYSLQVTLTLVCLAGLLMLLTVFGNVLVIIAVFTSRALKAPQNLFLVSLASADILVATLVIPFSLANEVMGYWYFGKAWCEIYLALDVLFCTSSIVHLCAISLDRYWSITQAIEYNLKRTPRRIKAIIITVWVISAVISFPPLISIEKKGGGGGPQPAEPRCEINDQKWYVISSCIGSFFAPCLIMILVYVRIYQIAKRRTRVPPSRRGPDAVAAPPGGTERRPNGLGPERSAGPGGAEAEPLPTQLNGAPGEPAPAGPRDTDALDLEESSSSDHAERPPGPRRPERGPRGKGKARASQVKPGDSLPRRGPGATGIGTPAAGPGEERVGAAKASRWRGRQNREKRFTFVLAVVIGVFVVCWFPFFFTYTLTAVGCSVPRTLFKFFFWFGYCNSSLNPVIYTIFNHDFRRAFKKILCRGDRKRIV
Type of assay: functional, cell-based.

Assay [2] has as its target T2, Cholecystokinin receptor type A (Homo sapiens, UniProt P32238).
T2 sequence (P32238 whole entry): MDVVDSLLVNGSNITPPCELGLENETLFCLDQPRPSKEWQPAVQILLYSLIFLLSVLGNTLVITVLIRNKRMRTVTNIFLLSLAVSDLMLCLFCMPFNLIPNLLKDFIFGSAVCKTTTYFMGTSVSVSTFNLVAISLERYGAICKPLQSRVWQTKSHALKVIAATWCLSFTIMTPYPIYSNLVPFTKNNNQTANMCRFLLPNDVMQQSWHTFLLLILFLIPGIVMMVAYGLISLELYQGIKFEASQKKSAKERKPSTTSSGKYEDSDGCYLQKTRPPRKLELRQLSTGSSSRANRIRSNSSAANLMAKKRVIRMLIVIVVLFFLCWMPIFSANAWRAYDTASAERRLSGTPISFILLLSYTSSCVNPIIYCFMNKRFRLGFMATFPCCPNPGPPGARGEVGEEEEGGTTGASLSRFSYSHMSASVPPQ

Assay [3] concerns the target T3, Gastrin/cholecystokinin type B receptor (Homo sapiens, UniProt P32239).
T3 sequence (P32239 whole entry): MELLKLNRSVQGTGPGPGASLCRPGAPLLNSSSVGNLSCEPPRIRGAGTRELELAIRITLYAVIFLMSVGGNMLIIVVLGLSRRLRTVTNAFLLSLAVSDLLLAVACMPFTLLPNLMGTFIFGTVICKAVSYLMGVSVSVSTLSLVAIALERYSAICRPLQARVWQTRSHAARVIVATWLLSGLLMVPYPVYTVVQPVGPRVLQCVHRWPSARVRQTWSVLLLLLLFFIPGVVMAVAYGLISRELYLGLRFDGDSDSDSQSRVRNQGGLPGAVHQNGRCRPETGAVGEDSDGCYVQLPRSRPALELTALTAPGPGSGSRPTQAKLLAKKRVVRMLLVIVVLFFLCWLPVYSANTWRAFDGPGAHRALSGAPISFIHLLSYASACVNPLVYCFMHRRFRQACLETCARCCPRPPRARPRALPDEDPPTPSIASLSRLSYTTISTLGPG

Assay [4] addresses Muscarinic acetylcholine receptor M3 (Homo sapiens, UniProt P20309).
The target of assay [5] is Glutamate receptor ionotropic, NMDA 1 (Rattus norvegicus, UniProt P35439).
Assay [6] concerns the target T4, 5-hydroxytryptamine receptor 1A (Homo sapiens, UniProt P08908).
T4 sequence (P08908 whole entry): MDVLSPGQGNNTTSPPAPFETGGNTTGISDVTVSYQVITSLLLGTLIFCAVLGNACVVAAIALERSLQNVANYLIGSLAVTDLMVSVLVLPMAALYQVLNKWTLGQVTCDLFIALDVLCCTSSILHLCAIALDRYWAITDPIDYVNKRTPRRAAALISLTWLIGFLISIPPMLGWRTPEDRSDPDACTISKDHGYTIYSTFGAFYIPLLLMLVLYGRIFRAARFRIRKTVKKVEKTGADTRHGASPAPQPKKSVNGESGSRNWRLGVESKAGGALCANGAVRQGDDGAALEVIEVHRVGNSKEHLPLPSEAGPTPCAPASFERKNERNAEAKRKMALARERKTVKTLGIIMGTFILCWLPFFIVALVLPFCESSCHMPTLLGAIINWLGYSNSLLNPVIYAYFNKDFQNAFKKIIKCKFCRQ
The format is functional, cell-based.

For another assay, the target named is Melanocortin receptor 3 (Homo sapiens, UniProt P41968).
The next assay deals with Motilin receptor (Homo sapiens, UniProt O43193).
Assay [7] addresses T5, Neuropeptide Y receptor type 1 (Homo sapiens, UniProt P25929).
T5 sequence (P25929 whole entry): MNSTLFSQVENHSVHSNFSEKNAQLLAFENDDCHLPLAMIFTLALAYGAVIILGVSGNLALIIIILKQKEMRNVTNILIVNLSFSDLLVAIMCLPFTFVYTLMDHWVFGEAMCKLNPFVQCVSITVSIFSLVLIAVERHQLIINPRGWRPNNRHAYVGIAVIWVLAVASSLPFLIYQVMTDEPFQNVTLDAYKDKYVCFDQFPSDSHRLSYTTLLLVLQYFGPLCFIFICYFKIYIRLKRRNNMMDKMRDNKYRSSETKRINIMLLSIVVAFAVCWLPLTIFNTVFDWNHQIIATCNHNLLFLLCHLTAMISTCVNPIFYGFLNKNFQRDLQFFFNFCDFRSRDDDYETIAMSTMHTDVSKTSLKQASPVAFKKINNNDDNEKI

The target in assay [8] is 3',5'-cyclic-AMP phosphodiesterase 4D (Homo sapiens, UniProt Q08499). The format is functional.
Further: assay procedure not described here.

Chain of Muscarinic acetylcholine receptor M3 (P20309 whole entry): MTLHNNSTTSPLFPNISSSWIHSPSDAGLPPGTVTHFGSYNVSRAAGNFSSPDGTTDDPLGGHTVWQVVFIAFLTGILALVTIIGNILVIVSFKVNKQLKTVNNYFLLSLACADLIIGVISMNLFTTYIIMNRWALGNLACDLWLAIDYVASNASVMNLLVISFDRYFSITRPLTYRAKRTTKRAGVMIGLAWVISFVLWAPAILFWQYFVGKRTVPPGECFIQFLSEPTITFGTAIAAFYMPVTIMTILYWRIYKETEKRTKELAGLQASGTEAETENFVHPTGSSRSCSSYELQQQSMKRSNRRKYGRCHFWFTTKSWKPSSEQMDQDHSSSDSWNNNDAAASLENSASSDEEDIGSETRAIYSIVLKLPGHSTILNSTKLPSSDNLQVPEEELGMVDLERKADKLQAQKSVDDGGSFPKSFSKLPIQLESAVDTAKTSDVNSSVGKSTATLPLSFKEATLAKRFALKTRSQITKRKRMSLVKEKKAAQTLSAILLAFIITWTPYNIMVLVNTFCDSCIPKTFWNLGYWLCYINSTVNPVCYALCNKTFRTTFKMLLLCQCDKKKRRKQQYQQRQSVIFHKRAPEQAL
Chain of Melanocortin receptor 3 (P41968 whole entry): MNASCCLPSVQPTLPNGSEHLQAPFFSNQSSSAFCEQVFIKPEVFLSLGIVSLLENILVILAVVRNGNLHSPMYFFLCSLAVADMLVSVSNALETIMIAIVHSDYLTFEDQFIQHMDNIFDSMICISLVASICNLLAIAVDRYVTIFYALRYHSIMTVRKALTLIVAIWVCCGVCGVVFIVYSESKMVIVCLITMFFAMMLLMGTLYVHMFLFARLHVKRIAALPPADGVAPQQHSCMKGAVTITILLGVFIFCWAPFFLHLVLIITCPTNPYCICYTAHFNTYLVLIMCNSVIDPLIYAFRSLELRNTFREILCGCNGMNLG
Chain of Motilin receptor (O43193 whole entry): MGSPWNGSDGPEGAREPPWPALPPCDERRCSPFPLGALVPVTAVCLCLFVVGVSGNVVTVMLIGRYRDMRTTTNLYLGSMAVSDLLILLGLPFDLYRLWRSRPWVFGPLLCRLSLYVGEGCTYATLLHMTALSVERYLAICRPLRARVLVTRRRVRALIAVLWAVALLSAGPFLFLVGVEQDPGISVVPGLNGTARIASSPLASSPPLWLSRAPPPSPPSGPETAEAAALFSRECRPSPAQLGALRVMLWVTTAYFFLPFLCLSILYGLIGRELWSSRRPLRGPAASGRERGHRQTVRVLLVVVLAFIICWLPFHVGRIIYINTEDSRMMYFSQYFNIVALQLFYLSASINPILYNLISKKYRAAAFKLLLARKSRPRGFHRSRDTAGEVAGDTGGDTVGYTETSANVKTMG
Chain of 3',5'-cyclic-AMP phosphodiesterase 4D (Q08499 whole entry): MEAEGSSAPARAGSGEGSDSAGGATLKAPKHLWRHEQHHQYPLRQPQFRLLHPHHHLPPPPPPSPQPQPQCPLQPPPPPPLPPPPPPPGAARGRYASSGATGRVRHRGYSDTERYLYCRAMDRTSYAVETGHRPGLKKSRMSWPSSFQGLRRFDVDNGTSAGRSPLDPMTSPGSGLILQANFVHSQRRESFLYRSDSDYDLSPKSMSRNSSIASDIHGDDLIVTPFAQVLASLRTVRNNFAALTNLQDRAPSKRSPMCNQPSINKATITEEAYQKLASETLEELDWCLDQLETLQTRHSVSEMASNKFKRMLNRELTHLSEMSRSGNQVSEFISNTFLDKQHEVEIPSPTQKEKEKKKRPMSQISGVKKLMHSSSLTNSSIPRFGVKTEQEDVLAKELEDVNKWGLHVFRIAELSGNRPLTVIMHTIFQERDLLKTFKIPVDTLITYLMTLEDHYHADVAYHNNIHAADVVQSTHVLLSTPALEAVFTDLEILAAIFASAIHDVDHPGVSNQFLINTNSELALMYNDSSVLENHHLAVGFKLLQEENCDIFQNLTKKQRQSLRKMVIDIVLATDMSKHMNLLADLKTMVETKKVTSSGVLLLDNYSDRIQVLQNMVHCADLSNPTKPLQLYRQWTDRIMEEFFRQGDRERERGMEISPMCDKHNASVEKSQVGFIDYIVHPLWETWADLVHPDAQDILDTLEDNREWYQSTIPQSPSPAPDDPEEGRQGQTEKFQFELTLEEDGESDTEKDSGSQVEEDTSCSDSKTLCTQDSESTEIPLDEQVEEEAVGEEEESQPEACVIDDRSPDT

Regarding `CO[C@@]1(NC(=O)Cc2cccs2)C(=O)N2C(C(=O)O)=C(COC(N)=O)CS[C@@H]21` [CEFOXITIN], the AC50 in assay [1], in assay [2], in [3], in assay [4], in assay [5] and in assay [6] was greater than 30 µM each time. The AC50 (at Melanocortin receptor 3; at Motilin receptor; in [7]; in [8]) was greater than 30 µM each time.
Take `CCN(CC)CCOC(=O)c1ccc(N)cc1Cl` [CHLOROPROCAINE]: the half-maximal activity concentration (AC50) (commonly the concentration at which the activity in the assay is half-maximal) was greater than 30 µM in assay [1]; greater than 30 µM in assay [2]; greater than 30 µM in assay [3]; 18 µM in assay [4]; greater than 30 µM in assay [5]; greater than 30 µM in [6]. For the same compound, the half-maximal activity concentration (AC50) (on Melanocortin receptor 3; at Motilin receptor; in assay [7]; in assay [8]) was greater than 30 µM in each case.
Consider `COCCOC(=O)C1=C(C)NC(C)=C(C(=O)OC/C=C/c2ccccc2)C1c1cccc([N+](=O)[O-])c1` (stereo not given) [CILNIDIPINE], for which the AC50 in [1], in assay [2], in [3], in assay [4], in assay [5] and in assay [6] was greater than 30 µM throughout. The AC50 at Melanocortin receptor 3 was greater than 30 µM; on Motilin receptor, 24 µM; in assay [7], greater than 30 µM; in assay [8] it was 8.2 µM.
As to `N[C@H](Cc1cc(I)c(Oc2cc(I)c(O)c(I)c2)c(I)c1)C(=O)O` [DEXTROTHYROXINE], the concentration at half-maximal activity (AC50) in assay [1] is greater than 10 µM; in assay [2], greater than 30 µM; in assay [3] it was greater than 30 µM; in assay [4] it was greater than 30 µM; in assay [5] it was greater than 10 µM; in assay [6], 8.2 µM. The AC50 at Melanocortin receptor 3 is greater than 30 µM; at Motilin receptor, greater than 10 µM; in assay [7], greater than 30 µM; in assay [8], 0.26 µM.
For `COC(=O)N[C@@H](C)CNc1nccc(-c2cn(C(C)C)nc2-c2cc(Cl)cc(NS(C)(=O)=O)c2F)n1` [ENCORAFENIB], the AC50 was greater than 30 µM in assay [1]; greater than 30 µM in [2]; 22.1 µM in assay [3]; 8.7 µM in assay [4]; greater than 30 µM in [5]; greater than 30 µM in assay [6]. Moreover, the AC50 at Melanocortin receptor 3 is greater than 30 µM; at Motilin receptor it was greater than 30 µM; in assay [7] it was greater than 30 µM; in [8] it was 4.4 µM.
In the case of `Clc1ccc2c(c1)C(c1ccccc1)=NCc1nncn1-2` [ESTAZOLAM], the AC50 in [1] is greater than 10 µM; in assay [2], greater than 30 µM; in [3] it was greater than 30 µM; in assay [4], greater than 30 µM; in [5], greater than 10 µM; in assay [6], greater than 10 µM. The AC50 at Melanocortin receptor 3 was greater than 30 µM; at Motilin receptor, greater than 10 µM; in [7] it was greater than 30 µM; in assay [8], 10 µM.
As for `Nc1nc(F)nc2c1ncn2[C@@H]1O[C@H](COP(=O)(O)O)[C@@H](O)[C@@H]1O` [FLUDARABINE PHOSPHATE], the AC50 in assay [1], in assay [2], in assay [3], in assay [4], in assay [5] and in assay [6] was greater than 30 µM each time. In addition, the AC50 (at Melanocortin receptor 3; on Motilin receptor; in assay [7]; in assay [8]) was greater than 30 µM throughout.
Consider `O=C(O)c1ccccc1Nc1cccc(C(F)(F)F)c1` [FLUFENAMIC ACID], for which the AC50 in assay [1] was greater than 30 µM; in assay [2] it was greater than 30 µM; in assay [3], greater than 30 µM; in [4] it was 0.92 µM; in assay [5] it was greater than 10 µM; in assay [6], 15 µM. The AC50 at Melanocortin receptor 3 was greater than 30 µM; at Motilin receptor, greater than 10 µM; in assay [7], greater than 30 µM; in [8] it was greater than 30 µM.
For `C#C[C@]1(O)CC[C@H]2[C@@H]3CCC4=CC(=O)CCC4=C3C=C[C@@]21CC` [GESTRINONE], the AC50 in assay [1], in assay [2], in [3], in [4], in [5] and in [6] was greater than 30 µM throughout. For the same compound, the AC50 at Melanocortin receptor 3 is greater than 30 µM; at Motilin receptor it was greater than 30 µM; in assay [7] it was greater than 30 µM; in [8], 4.1 µM.
`CCCCCCOC(=O)CCC(=O)CN` [HEXAMINOLEVULINATE]: the AC50 in [1], in assay [2], in assay [3], in assay [4], in assay [5] and in assay [6] was greater than 30 µM in each case. Moreover, the AC50 (on Melanocortin receptor 3; at Motilin receptor; in assay [7]; in assay [8]) was greater than 30 µM throughout.
Consider `CC1(C)C(/C=C/C=C/C=C/C=C2\N(CCCCS(=O)(=O)O)c3ccc4ccccc4c3C2(C)C)=[N+](CCCCS(=O)(=O)[O-])c2ccc3ccccc3c21` [INDOCYANINE GREEN ACID FORM], for which the AC50 in assay [1] was greater than 30 µM; in [2] it was 19 µM; in assay [3], 9.2 µM; in assay [4] it was 13 µM; in assay [5], greater than 30 µM; in assay [6] it was greater than 30 µM. Further, the AC50 at Melanocortin receptor 3 was greater than 30 µM; on Motilin receptor, 23 µM; in [7] it was greater than 30 µM; in assay [8], 2.3 µM.
In the case of `CCCC[C@H](C)C[C@H](O)/C=C/[C@H]1[C@H](O)CC(=O)[C@@H]1CCCC/C=C/C(=O)O` [LIMAPROST], the AC50 in assay [1], in [2], in assay [3], in [4], in assay [5] and in assay [6] was greater than 30 µM throughout. Moreover, the AC50 (at Melanocortin receptor 3; on Motilin receptor; in [7]; in assay [8]) was greater than 30 µM throughout.
For `Cc1ccc(NC(=O)C2(c3ccc4c(c3)OC(F)(F)O4)CC2)nc1-c1cccc(C(=O)O)c1` [LUMACAFTOR], the AC50 in [1] is greater than 30 µM; in assay [2], greater than 30 µM; in assay [3], greater than 10 µM; in assay [4], greater than 30 µM; in assay [5], greater than 30 µM; in [6] it was greater than 30 µM. Further, the AC50 on Melanocortin receptor 3 was greater than 30 µM; at Motilin receptor, greater than 30 µM; in [7], greater than 30 µM; in assay [8], 15 µM.
